In paper PMC7561186, “Rational design of balanced dual-targeting antibiotics with limited resistance” (PLoS Biology, 2020):
Read-outs that look alike come from different tables or passages of the source.

Test system: S. aureus clinical isolates
Assay: microbe, parasite or virus in culture
Format: cell-based
Details: Staphylococcus aureus, read-out: MIC

Measured: MIC

Cc1onc(-c2ccccc2)c1C(=O)N[C@@H]1C(=O)N2[C@@H]1SC(C)(C)[C@@H]2C(=O)O [Oxacillin]
64 µg/mL: MRSA / NRS 18 / VISA, S. aureus IHMA 649386, NRS18, MRSA / VISA | MRSA, S. aureus IHMA 1575629, MRSA / VSSA | MRSA, S. aureus IHMA 1703428, MRSA / VSSA
8 µg/mL: MRSA / NRS 37 / VISA, S. aureus IHMA 1308251, NRS37, MRSA / VISA
> 64 µg/mL: MRSA / NRS 3 / VISA, S. aureus IHMA 1308243, NRS3, MRSA / VISA | MRSA / NRS 4 / VISA, S. aureus IHMA 649380, NRS4, MRSA / VISA | MRSA / NRS 19 / VISA, S. aureus IHMA 649387, NRS19, MRSA / VISA | MRSA / NRS 21 / VISA, S. aureus IHMA 649388, NRS21, MRSA / VISA | MRSA / NRS 23 / VISA, S. aureus IHMA 649390, NRS23, MRSA / VISA | MRSA / NRS 24 / VISA, S. aureus IHMA 649391, NRS24, MRSA / VISA | MRSA / NRS 26, S. aureus IHMA 649392, NRS26, MRSA / VSSA | MRSA / NRS 27 / VISA, S. aureus IHMA 1308248, NRS27, MRSA / VISA | MRSA / NRS 29 / VISA, S. aureus IHMA 1308250, NRS29, MRSA / VISA | MRSA / NRS 54, S. aureus IHMA 1308253, NRS54, MRSA / VSSA* (*Expected VAN intermediate, confirmed VAN susceptible twice), test date 2018-11-07 | MRSA / NRS 56 / VISA, S. aureus IHMA 1308254, NRS56, MRSA / VISA | MRSA / USA100 / VRSA, S. aureus IHMA 672230, VRS1, MRSA / VRSA, USA100 | MRSA / USA100 / VRSA, S. aureus IHMA 672231, VRS2, MRSA / VRSA, USA100 | MRSA / USA100 / VRSA, S. aureus IHMA 672234, VRS4, MRSA / VRSA, USA100 | MRSA / USA100 / VRSA, S. aureus IHMA 672235, VRS5, MRSA / VRSA, USA100 | MRSA / USA100 / VRSA, S. aureus IHMA 672237, VRS7, MRSA / VRSA, USA100 | MRSA / USA100 / VRSA, S. aureus IHMA 672238, VRS8, MRSA / VRSA, USA100 | MRSA / USA100 / VRSA, S. aureus IHMA 672239, VRS9, MRSA / VRSA, USA100 | MRSA / USA100 / VRSA, S. aureus IHMA 1308256, VRS10, MRSA / VRSA, USA100 | MRSA / USA800 / VRSA, S. aureus IHMA 672233, VRS3b, MRSA / VRSA, USA800 | MRSA, S. aureus IHMA 1569509, MRSA / VSSA | MRSA, S. aureus IHMA 1575268, MRSA / VSSA | MRSA, S. aureus IHMA 1580300, MRSA / VSSA | MRSA, S. aureus IHMA 1582100, MRSA / VSSA | MRSA, S. aureus IHMA 1583795, MRSA / VSSA | MRSA, S. aureus IHMA 1584223, MRSA / VSSA | MRSA, S. aureus IHMA 1585316, MRSA / VSSA | MRSA, S. aureus IHMA 1587322, MRSA / VSSA | MRSA, S. aureus IHMA 1592755, MRSA / VSSA | MRSA, S. aureus IHMA 1597106, MRSA / VSSA | MRSA, S. aureus IHMA 1611612, MRSA / VSSA | MRSA, S. aureus IHMA 1612228, MRSA / VSSA | MRSA, S. aureus IHMA 1620441, MRSA / VSSA | MRSA, S. aureus IHMA 1622252, MRSA / VSSA | MRSA, S. aureus IHMA 1695391, MRSA / VSSA | MRSA, S. aureus IHMA 1732989, MRSA / VSSA | MRSA, S. aureus IHMA 1742231, MRSA / VSSA
32 µg/mL: MRSA, S. aureus IHMA 1577820, MRSA / VSSA | MRSA, S. aureus IHMA 1580940, MRSA / VSSA | MRSA, S. aureus IHMA 1586780, MRSA / VSSA | MRSA, S. aureus IHMA 1588127, MRSA / VSSA | MRSA, S. aureus IHMA 1591462, MRSA / VSSA | MRSA, S. aureus IHMA 1592776, MRSA / VSSA | MRSA, S. aureus IHMA 1602095, MRSA / VSSA | MRSA, S. aureus IHMA 1621638, MRSA / VSSA | MRSA, S. aureus IHMA 1622527, MRSA / VSSA | MRSA, S. aureus IHMA 1720350, MRSA / VSSA | MRSA, S. aureus IHMA 1766357, MRSA / VSSA
0.25 µg/mL: ATCC 29213 / MSSA, S. aureus ATCC 29213, MSSA / VSSA, test date 2018-10-25 (three repeat lines) | ATCC 29213 / MSSA, S. aureus ATCC 29213, MSSA / VSSA, test date 2018-11-07 | MSSA / NRS 12 / VISA, S. aureus IHMA 1308244, NRS12, MSSA / VISA | MSSA / NRS 14 / VISA, S. aureus IHMA 1308246, NRS14, MSSA / VISA | MSSA, S. aureus IHMA 1563826, MSSA / VSSA | MSSA, S. aureus IHMA 1565492, MSSA / VSSA | MSSA, S. aureus IHMA 1582691, MSSA / VSSA | MSSA, S. aureus IHMA 1587279, MSSA / VSSA | MSSA, S. aureus IHMA 1591459, MSSA / VSSA | MSSA, S. aureus IHMA 1592749, MSSA / VSSA | MSSA, S. aureus IHMA 1597120, MSSA / VSSA | MSSA, S. aureus IHMA 1604609, MSSA / VSSA | MSSA, S. aureus IHMA 1609919, MSSA / VSSA
16 µg/mL: MRSA / NRS 22 / USA600 / VISA, S. aureus IHMA 649389, NRS22, MRSA / VISA, USA600 | MRSA / USA100 / VRSA, S. aureus IHMA 1308258, VRS11b, MRSA / VRSA, USA100 | MRSA, S. aureus IHMA 1611170, MRSA / VSSA | MRSA, S. aureus IHMA 1666371, MRSA / VSSA
2 µg/mL: MSSA / NRS 17 / VISA, S. aureus IHMA 1308247, NRS17, MSSA / VISA | MSSA / NRS 28 / VISA, S. aureus IHMA 1308249, NRS28, MSSA / VISA | MSSA / USA100 / VRSA, S. aureus IHMA 672236, VRS6, MSSA / VRSA, USA100 | MSSA, S. aureus IHMA 1574202, MSSA / VSSA
0.5 µg/mL: MSSA / NRS 13 / VISA, S. aureus IHMA 1308245, NRS13, MSSA / VISA | MSSA, S. aureus IHMA 1575779, MSSA / VSSA | MSSA, S. aureus IHMA 1576329, MSSA / VSSA | MSSA, S. aureus IHMA 1577800, MSSA / VSSA | MSSA, S. aureus IHMA 1578560, MSSA / VSSA | MSSA, S. aureus IHMA 1580233, MSSA / VSSA | MSSA, S. aureus IHMA 1580925, MSSA / VSSA | MSSA, S. aureus IHMA 1580955, MSSA / VSSA | MSSA, S. aureus IHMA 1582586, MSSA / VSSA | MSSA, S. aureus IHMA 1584230, MSSA / VSSA | MSSA, S. aureus IHMA 1592751, MSSA / VSSA | MSSA, S. aureus IHMA 1594297, MSSA / VSSA | MSSA, S. aureus IHMA 1597125, MSSA / VSSA | MSSA, S. aureus IHMA 1599157, MSSA / VSSA | MSSA, S. aureus IHMA 1599506, MSSA / VSSA | MSSA, S. aureus IHMA 1604586, MSSA / VSSA | MSSA, S. aureus IHMA 1622864, MSSA / VSSA | MSSA, S. aureus IHMA 1626392, MSSA / VSSA | MSSA, S. aureus IHMA 1713793, MSSA / VSSA
0.12 µg/mL: MSSA / NRS 52, S. aureus IHMA 1308252, NRS52, MSSA / VSSA* (*Expected VAN intermediate, confirmed VAN susceptible twice), test date 2018-11-07
1 µg/mL: MSSA, S. aureus IHMA 1569499, MSSA / VSSA | MSSA, S. aureus IHMA 1569754, MSSA / VSSA | MSSA, S. aureus IHMA 1575652, MSSA / VSSA | MSSA, S. aureus IHMA 1602078, MSSA / VSSA
